Reference: ChEMBL document CHEMBL4325844, “Development of 2-amino-4-phenylthiazole analogues to disrupt myeloid differentiation factor 88 and prevent inflammatory responses in acute lung injury” (Eur J Med Chem, 2019)
The source made the active and inactive calls. The calls are words filed in the database; no cut-off is given here.

Legend:
Mus musculus [1] = assay: Antiinflammatory activity in LPS-induced C57/BL6 mouse model of acute lung injury assessed as reduction in total protein levels in BALF at 10 mg/kg, ip pretreated for 30 mins followed by LPS challenge measured after 6 hrs; assay type: functional, organism-based
Mus musculus [2] = assay: Antiinflammatory activity in LPS-induced C57/BL6 mouse model of acute lung injury assessed as reduction in neutrophil inflammatory infiltration at 10 mg/kg, ip pretreated for 30 mins followed by LPS challenge measured after 6 hrs by F4/80/hematoxylin staining based microscopic analysis; assay type: functional, organism-based
[3] = target: Myeloid differentiation primary response protein MyD88 (Mus musculus) (UniProt P22366); assay: Inhibition of MyD88 in ICR mouse primary peritoneal macrophages assessed as reduction in LPS-induced p38 MAPK phosphorylation at 20 uM preincubated for 30 mins followed by LPS-stimulation and measured after 20 mins by Western blot analysis
Sequence of Myeloid differentiation primary response protein MyD88 (Mus musculus) (P22366 whole entry, the tested form may be a part): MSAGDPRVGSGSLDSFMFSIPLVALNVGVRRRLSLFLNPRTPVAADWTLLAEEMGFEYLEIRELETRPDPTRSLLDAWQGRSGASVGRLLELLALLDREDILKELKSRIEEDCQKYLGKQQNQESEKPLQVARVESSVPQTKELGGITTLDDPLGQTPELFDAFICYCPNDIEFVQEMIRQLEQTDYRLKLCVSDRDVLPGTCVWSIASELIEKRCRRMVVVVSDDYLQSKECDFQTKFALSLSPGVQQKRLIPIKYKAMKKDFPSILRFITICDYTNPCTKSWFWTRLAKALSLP

Mus musculus [4] = assay: Antiinflammatory activity in LPS-induced C57/BL6 mouse model of acute lung injury assessed as reduction in IL6 level in serum at 10 mg/kg, ip pretreated for 30 mins followed by LPS challenge measured after 6 hrs by ELISA; assay type: functional, organism-based
Mus musculus [5] = assay: Antiinflammatory activity in LPS-induced C57/BL6 mouse model of acute lung injury assessed as reduction in IL6 mRNA expression at 10 mg/kg, ip pretreated for 30 mins followed by LPS challenge measured after 6 hrs by SYBR green dye based RT-qPCR analysis; assay type: functional, organism-based
Mus musculus [6] = assay: Antiinflammatory activity in LPS-induced C57/BL6 mouse model of acute lung injury assessed as reduction in lung wet/dry ratio at 10 mg/kg, ip pretreated for 30 mins followed by LPS challenge measured after 6 hrs; assay type: functional, organism-based
[7] = target: T1, Myeloid differentiation primary response protein MyD88 (Homo sapiens, UniProt Q99836); assay: Inhibition of LPS-induced HA-tagged MyD88 (unknown origin) interaction with FLAG-tagged MyD88 (unknown origin) expressed in HEK293 cells at 20 uM after 48 hrs by co-immunoprecipitation method; assay type: cell-based
T1 sequence (Q99836 whole entry): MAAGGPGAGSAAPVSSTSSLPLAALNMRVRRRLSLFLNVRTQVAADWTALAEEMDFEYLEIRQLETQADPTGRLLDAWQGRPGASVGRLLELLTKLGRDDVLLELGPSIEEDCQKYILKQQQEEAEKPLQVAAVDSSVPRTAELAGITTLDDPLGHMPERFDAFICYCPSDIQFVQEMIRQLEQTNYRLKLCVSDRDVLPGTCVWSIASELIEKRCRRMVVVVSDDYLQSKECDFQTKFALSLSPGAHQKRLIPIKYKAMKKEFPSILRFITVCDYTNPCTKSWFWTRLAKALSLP

Mus musculus [8] = assay: Antiinflammatory activity in LPS-induced C57/BL6 mouse model of acute lung injury assessed as reduction in ICAM1 mRNA expression at 10 mg/kg, ip pretreated for 30 mins followed by LPS challenge measured after 6 hrs by SYBR green dye based RT-qPCR analysis; assay type: functional, organism-based
Mus musculus [9] = assay: Antiinflammatory activity in LPS-induced C57/BL6 mouse model of acute lung injury assessed as reduction in macrophage inflammatory infiltration at 10 mg/kg, ip pretreated for 30 mins followed by LPS challenge measured after 6 hrs by F4/80/hematoxylin staining based microscopic analysis; assay type: functional, organism-based
Mus musculus [10] = assay: Antiinflammatory activity in LPS-induced C57/BL6 mouse model of acute lung injury assessed as reduction in inflammatory infiltration at 10 mg/kg, ip pretreated for 30 mins followed by LPS challenge measured after 6 hrs by hematoxylin and eosin staining based microscopic analysis; assay type: functional, organism-based
[11] = target: Myeloid differentiation primary response protein MyD88 (Mus musculus) (UniProt P22366); assay: Inhibition of MyD88 in ICR mouse primary peritoneal macrophages assessed as reduction in LPS-induced ERK phosphorylation at 20 uM preincubated for 30 mins followed by LPS-stimulation and measured after 20 mins by Western blot analysis
[12] = target: T1, Myeloid differentiation primary response protein MyD88; assay: Binding affinity to recombinant human MyD88 TIR domain (157 to 296 residues) expressed in Escherichia coli BL21(DE3) by surface plasmon resonance analysis
[13] = Cytotoxicity against ICR mouse primary peritoneal macrophages assessed as cell viability at 20 uM after 24 hrs by MTT assay relative to control; assay type: cell-based, Peritoneal macrophage; conditions: read-out: Activity
Mus musculus [14] = assay: Antiinflammatory activity in LPS-induced C57/BL6 mouse model of acute lung injury assessed as reduction in lung tissue destruction at 10 mg/kg, ip pretreated for 30 mins followed by LPS challenge measured after 6 hrs by hematoxylin and eosin staining based microscopic analysis; assay type: functional, organism-based
Mus musculus [15] = assay: Antiinflammatory activity in LPS-induced C57/BL6 mouse model of acute lung injury assessed as reduction in interstitial edema at 10 mg/kg, ip pretreated for 30 mins followed by LPS challenge measured after 6 hrs by hematoxylin and eosin staining based microscopic analysis; assay type: functional, organism-based
[16] = target: Toll-like receptor 4/Ly96 (Mus musculus) (UniProt Q9QUK6+Q9JHF9); assay: Inhibition of TLR4/MD2 interaction in LPS-induced mouse RAW264.7 at 20 uM measured after 30 mins by co-immunoprecipitation method; assay type: cell-based
Mus musculus [17] = assay: Antiinflammatory activity in LPS-induced C57/BL6 mouse model of acute lung injury assessed as reduction in thicken alveolar septa at 10 mg/kg, ip pretreated for 30 mins followed by LPS challenge measured after 6 hrs by hematoxylin and eosin staining based microscopic analysis; assay type: functional, organism-based
Mus musculus [18] = assay: Antiinflammatory activity in LPS-induced C57/BL6 mouse model of acute lung injury assessed as reduction in IL6 level in BALF at 10 mg/kg, ip pretreated for 30 mins followed by LPS challenge measured after 6 hrs by ELISA; assay type: functional, organism-based
[19] = Cytotoxicity against rat H9c2 cells assessed as cell viability at 20 uM after 24 hrs by MTT assay relative to control; assay type: cell-based; conditions: read-out: Activity
[20] = target: Myeloid differentiation primary response protein MyD88 (Mus musculus) (UniProt P22366); assay: Inhibition of MyD88 in ICR mouse primary peritoneal macrophages assessed as reduction in LPS-induced IkappaB levels at 20 uM preincubated for 30 mins followed by LPS-stimulation and measured after 20 mins by Western blot analysis
Peritoneal macrophage [21] = assay: Antiinflammatory activity in ICR mouse primary peritoneal macrophages assessed as inhibition of LPS-induced IL-6 production preincubated for 2 hrs followed by LPS stimulation and measured after 22 hrs by ELISA; assay type: functional, cell-based
Mus musculus [22] = assay: Antiinflammatory activity in LPS-induced C57/BL6 mouse model of acute lung injury assessed as reduction in TNFalpha mRNA expression at 10 mg/kg, ip pretreated for 30 mins followed by LPS challenge measured after 6 hrs by SYBR green dye based RT-qPCR analysis; assay type: functional, organism-based
[23] = target: T1, Myeloid differentiation primary response protein MyD88; assay: Potency index, ratio of TJ-M2010-5 Kd to test compound Kd for recombinant human MyD88 TIR domain (157 to 296 residues) expressed in Escherichia coli BL21(DE3)
[24] = target: Myeloid differentiation primary response protein MyD88 (Mus musculus) (UniProt P22366); assay: Inhibition of MyD88 in ICR mouse primary peritoneal macrophages assessed as reduction in LPS-induced NFkappaB translocation at 20 uM preincubated for 30 mins followed by LPS-stimulation and measured after 20 mins by immunofluorescence microscopic analysis
[25] = Cytotoxicity against rat NRK cells assessed as cell viability at 20 uM after 24 hrs by MTT assay relative to control; assay type: cell-based; conditions: read-out: Activity
Mus musculus [26] = assay: Antiinflammatory activity in LPS-induced C57/BL6 mouse model of acute lung injury assessed as reduction in IL1beta mRNA expression at 10 mg/kg, ip pretreated for 30 mins followed by LPS challenge measured after 6 hrs by SYBR green dye based RT-qPCR analysis; assay type: functional, organism-based
Peritoneal macrophage [27] = assay: Antiinflammatory activity in ICR mouse primary peritoneal macrophages assessed as inhibition of LPS-induced IL-6 production at 20 uM preincubated for 60 mins followed by LPS stimulation and measured after 24 hrs by ELISA relative to control; assay type: functional

COc1cc(-c2csc(NC(=O)CCN3CCN(Cc4cccc([N+](=O)[O-])c4)CC3)n2)ccc1O
Activity (Mus musculus [1]): Active
Activity (Mus musculus [2]): Active
inhibition [3]: Active
Activity (Mus musculus [4]): Active
Activity (Mus musculus [5]): Active
Activity (Mus musculus [6]): Active
inhibition [7]: Active
Activity (Mus musculus [8]): Active
Activity (Mus musculus [9]): Active
Activity (Mus musculus [10]): Active
inhibition [11]: Active
Activity [12]: Dose-dependent effect
Ka [12]: 4830 M⁻¹ s⁻¹
Kd [12]: 34.5 µM
Kdiss [12]: 0.167 s⁻¹
viability at 24 h, 20 µM [13]: > 80%
Activity (Mus musculus [14]): Active
Activity (Mus musculus [15]): Active
inhibition [16]: inactive
Activity (Mus musculus [17]): Active
Activity (Mus musculus [18]): Active
viability at 24 h, 20 µM [19]: > 80%
inhibition [20]: Active
IC50 (Peritoneal macrophage [21]): 2.52 µM
inhibition (Peritoneal macrophage [21]): Dose-dependent effect
Activity (Mus musculus [22]): Active
Ratio [23]: 5
inhibition [24]: Active
viability at 24 h, 20 µM [25]: > 80%
Activity (Mus musculus [26]): Active
inhibition at 20 µM (Peritoneal macrophage [27]): 95%
